# Experimental data published in patent US10968248B2, “Trinucleotide mRNA cap analogs” (c/o Arcturus Therapeutics, Inc., priority 2016, dated 2021).
# Experiments:
# [1] = Protein expression in plasma (ELISA) after i.v. delivery of m^7G(5′)p3-RNA to mice; assay type: in vivo
# [2] = target: T7 RNA polymerase (Escherichia phage T7, UniProt P00573); conditions: 2 hrs at 37 C, concluded from protein expression in mice
# Experimental: For ARCA and ARC CAP1 mRNAs, in vitro transcription was performed using the standard protocol (see Table, below). All of components were mixed, and T7 RNA polymerase (E2040 from NEB) was added in the reaction mixture. The transcription reaction was incubated for 2 hrs at 37 C. After 2 hrs of reaction time, DNASEI (NEB) and buffer were added to the transcription reaction and incubated for 15 mins at 37 C. The crude of reaction mix was purified using RNA purification kit (Macherey-Nagel).
# [3] = system: rabbit reticulocyte lysate system; conditions: mRNA transcribed with the cap analog; cited from earlier work
# [4] = in vitro transcription initiated with the cap analog; cited from earlier work
# Sequence of T7 RNA polymerase (P00573 whole entry): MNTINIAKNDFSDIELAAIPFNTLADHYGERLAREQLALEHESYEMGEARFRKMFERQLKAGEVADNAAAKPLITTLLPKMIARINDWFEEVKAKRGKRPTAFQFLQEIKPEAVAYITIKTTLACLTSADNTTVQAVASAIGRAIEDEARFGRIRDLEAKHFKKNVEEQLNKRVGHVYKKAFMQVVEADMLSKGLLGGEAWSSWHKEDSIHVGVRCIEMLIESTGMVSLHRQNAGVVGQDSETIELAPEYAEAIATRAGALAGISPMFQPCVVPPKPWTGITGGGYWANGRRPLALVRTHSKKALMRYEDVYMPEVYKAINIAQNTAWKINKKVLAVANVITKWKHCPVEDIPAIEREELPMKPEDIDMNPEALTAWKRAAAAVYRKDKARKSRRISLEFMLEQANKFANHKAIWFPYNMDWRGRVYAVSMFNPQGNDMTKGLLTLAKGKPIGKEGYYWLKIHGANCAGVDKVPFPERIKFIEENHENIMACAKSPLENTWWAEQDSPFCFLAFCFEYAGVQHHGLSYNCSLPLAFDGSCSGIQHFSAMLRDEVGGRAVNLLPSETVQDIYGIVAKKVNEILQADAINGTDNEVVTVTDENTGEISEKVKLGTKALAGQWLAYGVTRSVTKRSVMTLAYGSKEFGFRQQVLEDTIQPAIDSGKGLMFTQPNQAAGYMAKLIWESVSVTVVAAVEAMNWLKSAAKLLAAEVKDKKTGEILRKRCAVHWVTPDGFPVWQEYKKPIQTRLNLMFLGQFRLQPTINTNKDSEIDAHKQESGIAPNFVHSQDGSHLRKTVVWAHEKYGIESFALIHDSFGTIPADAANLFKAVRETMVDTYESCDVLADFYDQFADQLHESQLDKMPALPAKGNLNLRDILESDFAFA
Compound,efficiency of translation of capped RNA ([1]; compared with enzymatically (vaccinia) capped RNA),"amount of protein expression ([1]; m^7G(5′)p3-RNA 0.3 mg/kg i.v., male mice, plasma 6 hours post dose, ELISA, FIG. 16)",efficiency of transcription [2],translational efficiency (rank order of cap structures) [3],caps oriented in the reverse direction / reverse-orientation transcript [4]
"CO[C@@H]1[C@H](OP(=O)(O)OC[C@H]2O[C@@H](n3cnc4c(=O)[nH]c(N)nc43)[C@H](O)[C@@H]2O)[C@@H](COP(=O)(O)OP(=O)(O)OP(=O)([O-])OC[C@H]2O[C@@H]([n+]3cn(C)c4c(=O)[nH]c(N)nc43)[C@H](O)[C@@H]2O)O[C@H]1n1cnc2c(N)ncnc21 [ARC CAP1, m^7G(5′)p3AmpG]",just as efficient translated as enzymatically capped RNA,greater than ARCA,substantially improved compared to dinucleotide ARCA,greatest,–
Cn1c[n+]([C@@H]2O[C@H](COP(=O)(O)OP(=O)([O-])OP(=O)(O)OC[C@H]3O[C@@H](n4cnc5c(=O)[nH]c(N)nc54)[C@H](O)[C@@H]3O)[C@@H](O)[C@H]2O)c2nc(N)[nH]c(=O)c21 [m^7G(5′)p3(5′)G],–,–,–,–,one third to one half of the caps oriented in the reverse direction
"CO[C@H]1[C@@H](O)[C@H](n2c[n+](C)c3c(=O)[nH]c(N)nc32)O[C@@H]1COP(=O)(O)OP(=O)(O)OP(=O)(O)OC[C@H]1O[C@@H](n2cnc3c(=O)[nH]c(N)nc32)[C@H](O)[C@@H]1O [ARCA, 3′-OMe-m^7G(5′)p3G]",–,–,–,–,without reversal
